Data: PMC10817917, “Alkyl deoxyglycoside-polymyxin combinations against critical priority carbapenem-resistant gram-negative bacteria” (Scientific Reports, 2024)

Tests used:
E. coli ATCC 25922 = experiment: Broth microdilution MIC/MBC, glycosides with or without polymyxins; format: cell-based, Escherichia coli
E. coli NCTC 13846 = experiment: as above; format: cell-based, Escherichia coli; conditions: antibiotic alone; strain B
K. pneumoniae CQ4921 = experiment: as above; format: cell-based, Klebsiella pneumoniae
E. cloacae CQ1941 = experiment: as above; format: cell-based
K. pneumoniae CQ1942 = experiment: Broth microdilution MIC, glycosides with or without polymyxins; format: cell-based, Klebsiella pneumoniae
K. pneumoniae CQ1947 = experiment: as above; format: cell-based, Klebsiella pneumoniae
A. baumannii CQ4322 = experiment: Broth microdilution MIC/MBC, glycosides with or without polymyxins; format: cell-based, Acinetobacter baumannii
P. aeruginosa CQ4924 = experiment: Broth microdilution MIC, glycosides with or without polymyxins; format: cell-based, Pseudomonas aeruginosa
Caco-2 cells = experiment: Resazurin cell viability assay (cytotoxicity); format: cell-based, human; conditions: tested alone (no polymyxin adjuvant); 72 h
Description: (§1) Cytotoxicity of each compound alone or in combination with different polymyxin concentrations was evaluated through the resazurin cell viability assay[49] in human embryonic HEK-293T cells, as well as in human colon adenocarcinoma Caco-2 cells, after a 72-h long incubation period.
(§2) HEK-293T and Caco-2 cells were grown in RPMI 1640 medium (VWR) supplemented with 10% FBS (Biowest), 1% PenStrep (Sigma Aldrich), and 1% glutamine (Biowest) in a humidified incubator at 37 °C with a 5% CO2 atmosphere. Twice a week, the medium was aspirated, the cells were washed with DPBS (VWR), trypsinized with trypsin–EDTA solution (Biowest), and resuspended in fresh culture medium. The dose-dependent effects of each glycoside or glycoside-polymyxin combination were evaluated by the resazurin cell viability assay. Polymyxins (colistin sulfate and PMB sulfate for microbiological assays, European Pharmacopoeia Reference Standards, Sigma-Aldrich) were firstly dissolved in sterilized Mili-Q water to a stock concentration of 1 mg/mL, while glycosides were dissolved in DMSO to a stock concentration of 30 mM. 1.5 × 10^4 cells/well in 96.5 µL of medium were seeded onto 96-well plates and incubated at 37 °C for 24 h. For each compound, ten stock dilutions (with concentrations from 750 to 75 µM) were prepared in fresh medium immediately prior to incubation. 16 µL of each dilution were added to each well so that the final glycoside concentrations ranged from 100 to 10 µM in each row in a final assay volume of 120 µL. In addition, the previously prepared polymyxin stock solutions were diluted in fresh medium, affording new stocks of 8, 4, and 2 µg/mL. The same volume (7.5 µL/well) of PMB or colistin was then added to each row to achieve a final polymyxin concentration of 0.5, 0.25, and 0.125 µg/mL, respectively, regardless of the glycoside concentration. In assays without polymyxin, the same volume (7.5 µL/well) of medium was added. In all assays, the maximum DMSO concentration was 0.33%. After a 72-h incubation at 37 °C, 12 µL of a 0.15 mg/mL resazurin (Sigma-Aldrich) in sterilized Mili-Q water were added to each well, and the plates were left incubating for another 4 h at 37 °C. Resorufin was measured at 570/600 nm, and the percentage of resazurin reduction, corresponding to the cell viability percentage, was calculated according to Eq. (1)[60]. IC50 values were obtained by best fitting the dose-dependent inhibition curves using the Prism 9® software. The results were expressed as the mean ± SD of three independent replicates, with only data from analysis with R^2 > 0.90 being considered.1 %Cellviability=Abssample-Absmediumcontrol/Abscellcontrol-Absmediumcontrol×100

HEK-293T cells = experiment: Resazurin cell viability assay (cytotoxicity); format: cell-based, human; conditions: tested alone (no polymyxin adjuvant); 72 h
Description: as §1, §2

HEK-293 cells = test system: HEK-293 cells; design: method as in PMID 30532748; conditions: polymyxin alone; cited from earlier work

colistin [reference compound]
MIC (E. coli ATCC 25922; agent alone, no adjuvant (polymyxin conc. 0), strain A): 0.5 µg/mL
MICB (MIC of colistin individually) (E. coli ATCC 25922; alone): 0.5 µg/mL
MIC (antibiotic susceptibility profile) (E. coli ATCC 25922; antibiotic alone, strain A): 0.5 to 1 µg/mL
MIC (antibiotic susceptibility profile) (E. coli NCTC 13846): 4 µg/mL
MIC (K. pneumoniae CQ4921; agent alone, no adjuvant (polymyxin conc. 0), strain C): 0.5 µg/mL
MICB (MIC of colistin individually) (K. pneumoniae CQ4921; alone): 0.5 µg/mL
MIC (antibiotic susceptibility profile) (K. pneumoniae CQ4921; antibiotic alone, strain C): 0.125 to 1 µg/mL
MIC (E. cloacae CQ1941; agent alone, no adjuvant (polymyxin conc. 0), strain D): 0.5 µg/mL
MICB (MIC of colistin individually) (E. cloacae CQ1941; alone): 0.5 µg/mL
MIC (antibiotic susceptibility profile) (E. cloacae CQ1941; antibiotic alone, strain D): 0.125 to 1 µg/mL
MIC (K. pneumoniae CQ1942; agent alone, no adjuvant (polymyxin conc. 0), strain E): 0.5 µg/mL
MICB (MIC of colistin individually) (K. pneumoniae CQ1942; alone): 0.5 µg/mL
MIC (antibiotic susceptibility profile) (K. pneumoniae CQ1942; antibiotic alone, strain E): 0.125 to 1 µg/mL
MIC (K. pneumoniae CQ1947; agent alone, no adjuvant (polymyxin conc. 0), strain F): 0.5 µg/mL
MICB (MIC of colistin individually) (K. pneumoniae CQ1947; alone): 0.5 µg/mL
MIC (antibiotic susceptibility profile) (K. pneumoniae CQ1947; antibiotic alone, strain F): 0.125 to 1 µg/mL
MIC (A. baumannii CQ4322; agent alone, no adjuvant (polymyxin conc. 0), strain G): 0.5 µg/mL
MICB (MIC of colistin individually) (A. baumannii CQ4322; alone): 0.5 µg/mL
MIC (antibiotic susceptibility profile) (A. baumannii CQ4322; antibiotic alone, strain G): 0.5 to 1 µg/mL
MIC (P. aeruginosa CQ4924; agent alone, no adjuvant (polymyxin conc. 0), strain H): 1 µg/mL
MICB (MIC of colistin individually) (P. aeruginosa CQ4924; alone): 1 µg/mL
MIC (antibiotic susceptibility profile) (P. aeruginosa CQ4924; antibiotic alone, strain H): 1 to 2 µg/mL
IC50 (Caco-2 cells): > 115 µg/mL
IC50 (HEK-293T cells): > 115 µg/mL
IC50 (HEK-293 cells): > 1000 µg/mL
